Results as given in US11267825B2 (AICURIS GMBH & CO. KG, priority 2017, dated 2022).

Experiments:
HBV core protein = HBV core protein (UniProt P03146); format: biochemical; settings: read-out: Assembly Activity (IC50); BODIPY-FL labelled core protein, assembly started with NaCl, read after 6 min
Method in brief: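 Fluorescence-quenching assembly assay using E. coli-expressed core protein 1–149 plus Cys150, labelled with BODIPY-FL maleimide, at 1.0–2.0 μM in 50 mM HEPES pH 7.5, 0.5% DMSO. Assembly started with NaCl to […]; fluorescence (ex 477/em 525 nm) read after 6 min. EC50 by non-linear regression, 8-point 0.5-log dilutions.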

HBV = assay: Determination of HBV DNA from the supernatants of HepAD38 cells (anti-HBV activity); format: cell-based, hepatitis B virus; settings: Hepatitis B virus, 144 h; HBV DNA in HepAD38 supernatant at day 6; read-out: Cell Activity (EC50)
Method in brief: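 HepAD38 cells (60,000/well) were treated with half-log compound dilutions in tetracycline-free medium to induce HBV production. On day 6, HBV DNA was purified from filtered supernatant and quantified by real-time PCR against plasmid standards. EC50 values came from non-linear regression of relative copy numbers, typically from three experiments in triplicate.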

HBV core protein, sequence (P03146 whole entry, looked up): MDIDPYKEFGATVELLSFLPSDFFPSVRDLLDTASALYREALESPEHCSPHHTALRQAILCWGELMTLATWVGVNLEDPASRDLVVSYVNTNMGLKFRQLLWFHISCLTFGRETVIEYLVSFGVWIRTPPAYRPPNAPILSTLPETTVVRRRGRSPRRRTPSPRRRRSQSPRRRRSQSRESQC

Structure (SMILES)	IC50 (HBV core protein) [µM]	EC50 (HBV) [µM]
CCc1cc(F)cc2[nH]c(C(=O)N3CCc4nc(N[C@H]5CC[C@@H](O)CC5)sc4C3)cc12 [Example 394, (1s,4s)-4-{[5-(4-ethyl-6-fluoro-1H-indole-2-carbonyl)-4H,5H,6H,7H-[1,3]thiazolo[5,4-c]pyridin-2-yl]amino}cyclohexan-1-ol]	< 5	< 1
CC(C)(C)NC(=O)Nc1nc2c(s1)CN(C(=O)c1cc3ccccc3[nH]1)CC2 [Example 264, 3-tert-butyl-1-[5-(1H-indole-2-carbonyl)-4H,5H,6H,7H-[1,3]thiazolo[5,4-c]pyridin-2-yl]urea]	5 to 10	< 1
Nc1nc2c(s1)CN(C(=O)c1cc3cccc(O)c3[nH]1)CC2 [Example 98, 2-{2-amino-4H,5H,6H,7H-[1,3]thiazolo[5,4-c]pyridine-5-carbonyl}-1H-indol-7-ol]	< 100	< 100
N#Cc1cccc2[nH]c(C(=O)N3CCc4nc(N)sc4C3)cc12 [Example 83, 5-(4-cyano-1H-indole-2-carbonyl)-4H,5H,6H,7H-[1,3]thiazolo[5,4-c]pyridin-2-amine]	< 5	1 to 10
O=C(c1cc2ccccc2[nH]1)N1CCc2nc(NCCn3cccn3)sc2C1 [Example 285, 5-(1H-indole-2-carbonyl)-N-[2-(1H-pyrazol-1-yl)ethyl]-4H,5H,6H,7H-[1,3]thiazolo[5,4-c]pyridin-2-amine]	< 5	< 1
O=C(c1cc2ccccc2[nH]1)N1CCc2nc(CNCC3(CO)CC3)sc2C1 [Example 41, {1-[({[5-(1H-indole-2-carbonyl)-4H,5H,6H,7H-[1,3]thiazolo[5,4-c]pyridin-2-yl]methyl}amino)methyl]cyclopropyl}methanol]	< 100	1 to 10
O=C(c1cc2ccccc2[nH]1)N1CCc2nc(NCC3COC3)sc2C1 [Example 126, 5-(1H-indole-2-carbonyl)-N-[(oxetan-3-yl)methyl]-4H,5H,6H,7H-[1,3]thiazolo[5,4-c]pyridin-2-amine]	5 to 10	1 to 10
O=C(c1cc2ccccc2[nH]1)N1CCc2nc(NCC3(O)CCOC3)sc2C1 (centres unmarked) [Example 253, 3-({[5-(1H-indole-2-carbonyl)-4H,5H,6H,7H-[1,3]thiazolo[5,4-c]pyridin-2-yl]amino}methyl)oxolan-3-ol]	< 5	< 1
O=C(c1cc2ccccc2[nH]1)N1CCc2nc(NCC(CO)CC3CC3)sc2C1 (centres unmarked) [Example 282, 2-(cyclopropylmethyl)-3-{[5-(1H-indole-2-carbonyl)-4H,5H,6H,7H-[1,3]thiazolo[5,4-c]pyridin-2-yl]amino}propan-1-ol]	5 to 10	< 1
O=C(c1cc2ccccc2[nH]1)N1CCc2nc(CNCc3ccccc3)sc2C1 [Example 74, Benzyl({[5-(1H-indole-2-carbonyl)-4H,5H,6H,7H-[1,3]thiazolo[5,4-c]pyridin-2-yl]methyl})amine]	< 100	1 to 10
O=C(c1cc2c(C(F)F)cccc2[nH]1)N1CCc2nc(NCC3(O)CCC3)sc2C1 [Example 408, 1-[({5-[4-(difluoromethyl)-1H-indole-2-carbonyl]-4H,5H,6H,7H-[1,3]thiazolo[5,4-c]pyridin-2-yl}amino)methyl]cyclobutan-1-ol]	< 5	< 1
CCc1cccc2[nH]c(C(=O)N3CCc4nc(NC(=O)C5(C)CC5)sc4C3)cc12 [Example 333, N-[5-(4-ethyl-1H-indole-2-carbonyl)-4H,5H,6H,7H-[1,3]thiazolo[5,4-c]pyridin-2-yl]-1-methylcyclopropane-1-carboxamide]	< 5	< 1
CC(Nc1nc2c(s1)CN(C(=O)c1cc3ccccc3[nH]1)CC2)C1CCOC1 (centres unmarked) [Example 247, 5-(1H-indole-2-carbonyl)-N-[1-(oxolan-3-yl)ethyl]-4H,5H,6H,7H-[1,3]thiazolo[5,4-c]pyridin-2-amine]	< 5	< 1
O=C(CNc1nc2c(s1)CN(C(=O)c1cc3ccccc3[nH]1)CC2)N1CCCCC1 [Example 233, 2-{[5-(1H-indole-2-carbonyl)-4H,5H,6H,7H-[1,3]thiazolo[5,4-c]pyridin-2-yl]amino}-1-(piperidin-1-yl)ethan-1-one]	< 100	1 to 10
CC(F)(F)c1cc(F)cc2[nH]c(C(=O)N3CCc4nc(NCC5CCOC5)sc4C3)cc12 (centres unmarked) [Example 327, 5-[4-(1,1-difluoroethyl)-6-fluoro-1H-indole-2-carbonyl]-N-[(oxolan-3-yl)methyl]-4H,5H,6H,7H-[1,3]thiazolo[5,4-c]pyridin-2-amine]	< 5	< 1
O=C(c1cc2c(F)c(F)c(F)cc2[nH]1)N1CCc2nc(NCC3CCOC3)sc2C1 (centres unmarked) [Example 105, 5-(4,5,6-trifluoro-1H-indole-2-carbonyl)-N-[(oxolan-3-yl)methyl]-4H,5H,6H,7H-[1,3]thiazolo[5,4-c]pyridin-2-amine]	< 5	< 1
CC(O)CNc1nc2c(s1)CN(C(=O)c1cc3c(F)ccc(F)c3[nH]1)CC2 (centres unmarked) [Example 144, 1-{[5-(4,7-difluoro-1H-indole-2-carbonyl)-4H,5H,6H,7H-[1,3]thiazolo[5,4-c]pyridin-2-yl]amino}propan-2-ol]	< 5	< 1
CCc1cc(F)cc2[nH]c(C(=O)N3CCc4nc(N)sc4C3)cc12 [Example 7, 5-(4-ethyl-6-fluoro-1H-indole-2-carbonyl)-4H,5H,6H,7H-[1,3]thiazolo[5,4-c]pyridin-2-amine]	< 5	< 1
CN(C)c1nc2c(s1)CN(C(=O)c1cc3c(Cl)cc(F)cc3[nH]1)CC2 [Example 209, 5-(4-chloro-6-fluoro-1H-indole-2-carbonyl)-N,N-dimethyl-4H,5H,6H,7H-[1,3]thiazolo[5,4-c]pyridin-2-amine]	5 to 10	1 to 10
O=C(c1cc2c(F)cc(F)cc2[nH]1)N1CCc2nc(NC3(CO)CCC3)sc2C1 [Example 218, (1-{[5-(4,6-difluoro-1H-indole-2-carbonyl)-4H,5H,6H,7H-[1,3]thiazolo[5,4-c]pyridin-2-yl]amino}cyclobutyl)methanol]	5 to 10	< 1
Nc1nc2c(s1)CN(C(=O)c1cc3c(C(F)(F)F)cccc3[nH]1)CC2 [Example 146, 5-(4-(trifluoromethyl)-1H-indole-2-carbonyl)-4H,5H,6H,7H-[1,3]thiazolo[5,4-c]pyridin-2-amine]	< 5	< 1
Cc1nc2c(s1)CN(C(=O)c1cc3ccc(Cl)cc3[nH]1)CC2 [Example 162]	< 5	< 1
Cc1cc(C)c2cc(C(=O)N3CCc4nc(N)sc4C3)[nH]c2c1 [Example 138, 5-(4,6-dimethyl-1H-indole-2-carbonyl)-4H,5H,6H,7H-[1,3]thiazolo[5,4-c]pyridin-2-amine]	< 5	1 to 10
COc1nc2c(s1)CN(C(=O)c1cc3ccccc3[nH]1)CC2 [Example 151, 2-{2-methoxy-4H,5H,6H,7H-[1,3]thiazolo[5,4-c]pyridine-5-carbonyl}-1H-indole]	< 100	1 to 10
CC(O)c1cc(F)cc2[nH]c(C(=O)N3CCc4nc(N)sc4C3)cc12 (centres unmarked) [Example 15, 1-(2-{2-amino-4H,5H,6H,7H-[1,3]thiazolo[5,4-c]pyridine-5-carbonyl}-6-fluoro-1H-indol-4-yl)ethan-1-ol]	5 to 10	1 to 10
